Measured values as given in the Kinase Knowledgebase extract (Sharma et al. 2016).
pIC50: −log10 of the molar value.

The compounds below were run against EGFR (UniProt P00533).
Sequence of EGFR (P00533 whole entry, looked up): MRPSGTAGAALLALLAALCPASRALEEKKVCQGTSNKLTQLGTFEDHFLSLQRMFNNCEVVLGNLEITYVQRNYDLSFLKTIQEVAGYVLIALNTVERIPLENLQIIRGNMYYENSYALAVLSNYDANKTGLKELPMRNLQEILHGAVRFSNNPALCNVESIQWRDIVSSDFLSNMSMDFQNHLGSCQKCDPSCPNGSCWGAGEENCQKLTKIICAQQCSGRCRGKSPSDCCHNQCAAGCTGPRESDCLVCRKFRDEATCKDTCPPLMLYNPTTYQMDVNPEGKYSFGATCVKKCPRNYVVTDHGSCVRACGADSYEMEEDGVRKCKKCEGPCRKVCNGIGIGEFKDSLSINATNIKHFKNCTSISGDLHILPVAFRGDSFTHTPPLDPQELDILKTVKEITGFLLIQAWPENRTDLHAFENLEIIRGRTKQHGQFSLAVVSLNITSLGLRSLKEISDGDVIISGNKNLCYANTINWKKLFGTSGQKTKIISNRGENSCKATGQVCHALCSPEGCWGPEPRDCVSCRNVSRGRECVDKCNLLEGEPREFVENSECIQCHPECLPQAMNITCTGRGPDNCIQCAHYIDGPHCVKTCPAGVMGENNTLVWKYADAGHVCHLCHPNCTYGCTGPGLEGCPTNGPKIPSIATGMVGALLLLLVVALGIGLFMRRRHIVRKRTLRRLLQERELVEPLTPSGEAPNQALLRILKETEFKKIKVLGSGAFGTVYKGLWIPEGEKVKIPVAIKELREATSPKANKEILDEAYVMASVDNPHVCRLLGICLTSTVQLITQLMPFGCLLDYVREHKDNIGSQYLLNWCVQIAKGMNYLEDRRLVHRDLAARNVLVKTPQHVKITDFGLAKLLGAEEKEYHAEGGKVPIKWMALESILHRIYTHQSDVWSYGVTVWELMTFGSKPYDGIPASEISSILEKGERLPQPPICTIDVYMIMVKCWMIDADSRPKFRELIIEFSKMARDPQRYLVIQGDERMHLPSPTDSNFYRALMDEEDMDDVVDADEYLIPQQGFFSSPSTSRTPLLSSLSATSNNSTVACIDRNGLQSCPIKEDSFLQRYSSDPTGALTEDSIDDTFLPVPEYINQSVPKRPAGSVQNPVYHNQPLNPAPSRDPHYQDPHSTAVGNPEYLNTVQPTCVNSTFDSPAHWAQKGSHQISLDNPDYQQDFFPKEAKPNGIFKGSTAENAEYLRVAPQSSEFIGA

pIC50, > 7.00:
CS(=O)(=O)CCNCCCc1ccc(-c2ccc3ncnc(Nc4ccc(OCc5ccccc5)c(Cl)c4)c3c2)o1
CS(=O)(=O)CCOCc1ccc(-c2ccc3ncnc(Nc4ccc(OCc5cccc(F)c5)c(Cl)c4)c3c2)o1
CCN(CCS(C)(=O)=O)Cc1ccc(-c2ccc3ncnc(Nc4ccc(OCc5cccc(F)c5)c(Cl)c4)c3c2)o1
C=CS(=O)(=O)CCOCc1ccc(-c2ccc3ncnc(Nc4ccc(OCc5cccc(F)c5)c(Cl)c4)c3c2)o1
CS(=O)(=O)CCN(CC#N)Cc1ccc(-c2ccc3ncnc(Nc4ccc(OCc5cccc(F)c5)c(Cl)c4)c3c2)o1
CCCS(=O)(=O)CCNCc1ccc(-c2cc3c(Nc4ccc(OCc5cccc(F)c5)cc4)ncnc3cn2)o1
O=S(=O)(CCNCc1ccc(-c2ccc3ncnc(Nc4ccc(OCc5cccc(F)c5)c(Cl)c4)c3c2)o1)c1ccccc1
Cn1ccnc1S(=O)(=O)CCNCc1ccc(-c2ccc3ncnc(Nc4ccc(OCc5cccc(F)c5)c(Cl)c4)c3c2)o1
CCCN(CCS(C)(=O)=O)Cc1ccc(-c2ccc3ncnc(Nc4ccc(OCc5cccc(F)c5)c(Cl)c4)c3c2)o1
O=S(=O)(CCOCc1ccc(-c2ccc3ncnc(Nc4ccc(OCc5cccc(F)c5)c(Cl)c4)c3c2)o1)c1ccccc1
O=S(=O)(CCNCc1ccc(-c2ccc3ncnc(Nc4ccc(OCc5cccc(F)c5)c(Cl)c4)c3c2)o1)c1ccccn1
CCCS(=O)(=O)CCNCc1ccc(-c2ccc3ncnc(Nc4ccc(OCc5cccc(F)c5)c(Cl)c4)c3c2)o1
